The series can be described thus: Preliminary test: dissolving property of dye solution components in ether-based solvents, alkane-based solvents and water. The note with it: for dissolving property in Dibutyl ether: 1 mg (solvents: 1 mL) in 1 mL dibutyl ether; for dissolving property in Dibutyl ether / dissolving property in Diethyl ether / dissolving property in Diisopropyl ether / dissolving property in Heptane / dissolving property in Hexane / dissolving property in Isoamyl ether / dissolving property in Methyl propyl ether / dissolving property in Octane / dissolving property in Pentane / dissolving property in t-Butyl methyl ether / dissolving property in Water: 25° C.; for dissolving property in Diethyl ether: 1 mg (solvents: 1 mL) in 1 mL diethyl ether; for dissolving property in Diisopropyl ether: 1 mg (solvents: 1 mL) in 1 mL diisopropyl ether; for dissolving property in Heptane: 1 mg (solvents: 1 mL) in 1 mL heptane; for dissolving property in Hexane: 1 mg (solvents: 1 mL) in 1 mL hexane; for dissolving property in Isoamyl ether: 1 mg (solvents: 1 mL) in 1 mL isoamyl ether; for dissolving property in Methyl propyl ether: 1 mg (solvents: 1 mL) in 1 mL methyl propyl ether; for dissolving property in Octane: 1 mg (solvents: 1 mL) in 1 mL octane; for dissolving property in Pentane: 1 mg (solvents: 1 mL) in 1 mL pentane; for dissolving property in t-Butyl methyl ether: 1 mg (solvents: 1 mL) in 1 mL t-butyl methyl ether; for dissolving property in Water: 1 mg (solvents: 1 mL) in 1 mL water, for comparison.

For `CC(C)(C)CCP(=O)(O)CCC(C)(C)C` [DINHOP, bis-(3,3-dimethyl-butyl)-phosphinic acid], the “dissolving property in Dibutyl ether” value was “⊙ (those dissolved at 5 g/L or more and those fully miscible with a solvent for dye solution were labeled as “⊙” with excellent dissolving property)”; the “dissolving property in Diethyl ether” value was “⊙ (those dissolved at 5 g/L or more and those fully miscible with a solvent for dye solution were labeled as “⊙” with excellent dissolving property)”; the “dissolving property in Diisopropyl ether” value was “⊙ (those dissolved at 5 g/L or more and those fully miscible with a solvent for dye solution were labeled as “⊙” with excellent dissolving property)”; the “dissolving property in Heptane” value is “⊙ (those dissolved at 5 g/L or more and those fully miscible with a solvent for dye solution were labeled as “⊙” with excellent dissolving property)”. Besides, the “dissolving property in Hexane” value was “⊙ (those dissolved at 5 g/L or more and those fully miscible with a solvent for dye solution were labeled as “⊙” with excellent dissolving property)”; the “dissolving property in Isoamyl ether” value was “⊙ (those dissolved at 5 g/L or more and those fully miscible with a solvent for dye solution were labeled as “⊙” with excellent dissolving property)”; the “dissolving property in Methyl propyl ether” value was “⊙ (those dissolved at 5 g/L or more and those fully miscible with a solvent for dye solution were labeled as “⊙” with excellent dissolving property)”; the “dissolving property in Octane” value was “⊙ (those dissolved at 5 g/L or more and those fully miscible with a solvent for dye solution were labeled as “⊙” with excellent dissolving property)”. Also, the “dissolving property in Pentane” value is “⊙ (those dissolved at 5 g/L or more and those fully miscible with a solvent for dye solution were labeled as “⊙” with excellent dissolving property)”; the “dissolving property in t-Butyl methyl ether” value is “⊙ (those dissolved at 5 g/L or more and those fully miscible with a solvent for dye solution were labeled as “⊙” with excellent dissolving property)”; the “dissolving property in Water” value is “Δ (those having the solubility of less than 0.05 g/L were labeled as “Δ” with fair dissolving property)”.
With `C[C@H](CCC(=O)O)[C@H]1CC[C@H]2[C@@H]3[C@H](O)C[C@@H]4C[C@H](O)CC[C@]4(C)[C@H]3CC[C@]12C` [CDCA, chenodeoxychloic acid], the “dissolving property in Dibutyl ether” value is “◯ (those having solubility of 0.05 g/L or more but less than 5 g/L and those miscible with a solvent for dye solution were labeled as “∘” with good dissolving property)”; the “dissolving property in Diethyl ether” value is “⊙ (those dissolved at 5 g/L or more and those fully miscible with a solvent for dye solution were labeled as “⊙” with excellent dissolving property)”; the “dissolving property in Diisopropyl ether” value was “⊙ (those dissolved at 5 g/L or more and those fully miscible with a solvent for dye solution were labeled as “⊙” with excellent dissolving property)”; the “dissolving property in Heptane” value is “◯ (those having solubility of 0.05 g/L or more but less than 5 g/L and those miscible with a solvent for dye solution were labeled as “∘” with good dissolving property)”. For the same compound, the “dissolving property in Hexane” value was “◯ (those having solubility of 0.05 g/L or more but less than 5 g/L and those miscible with a solvent for dye solution were labeled as “∘” with good dissolving property)”; the “dissolving property in Isoamyl ether” value is “Δ (those having the solubility of less than 0.05 g/L were labeled as “Δ” with fair dissolving property)”; the “dissolving property in Methyl propyl ether” value is “⊙ (those dissolved at 5 g/L or more and those fully miscible with a solvent for dye solution were labeled as “⊙” with excellent dissolving property)”; the “dissolving property in Octane” value was “Δ (those having the solubility of less than 0.05 g/L were labeled as “Δ” with fair dissolving property)”. Also, the “dissolving property in Pentane” value was “◯ (those having solubility of 0.05 g/L or more but less than 5 g/L and those miscible with a solvent for dye solution were labeled as “∘” with good dissolving property)”; the “dissolving property in t-Butyl methyl ether” value was “⊙ (those dissolved at 5 g/L or more and those fully miscible with a solvent for dye solution were labeled as “⊙” with excellent dissolving property)”. In addition, the “dissolving property of isoamyl ether, in words” value (isoamyl ether (C5H11—O—C5H11)) was “slightly inferior dissolving property”. In addition, the “dissolving property of octane, in words” value (octane with a carbon number of 8) is recorded as “poor dissolving property”.
As for `CCO` [Ethanol, ethanol], the “dissolving property in Dibutyl ether” value is “⊙ (those dissolved at 5 g/L or more and those fully miscible with a solvent for dye solution were labeled as “⊙” with excellent dissolving property)”; the “dissolving property in Diethyl ether” value is “⊙ (those dissolved at 5 g/L or more and those fully miscible with a solvent for dye solution were labeled as “⊙” with excellent dissolving property)”; the “dissolving property in Diisopropyl ether” value is “⊙ (those dissolved at 5 g/L or more and those fully miscible with a solvent for dye solution were labeled as “⊙” with excellent dissolving property)”; the “dissolving property in Heptane” value was “⊙ (those dissolved at 5 g/L or more and those fully miscible with a solvent for dye solution were labeled as “⊙” with excellent dissolving property)”. In addition, the “dissolving property in Hexane” value is “⊙ (those dissolved at 5 g/L or more and those fully miscible with a solvent for dye solution were labeled as “⊙” with excellent dissolving property)”; the “dissolving property in Isoamyl ether” value was “⊙ (those dissolved at 5 g/L or more and those fully miscible with a solvent for dye solution were labeled as “⊙” with excellent dissolving property)”; the “dissolving property in Methyl propyl ether” value is “⊙ (those dissolved at 5 g/L or more and those fully miscible with a solvent for dye solution were labeled as “⊙” with excellent dissolving property)”; the “dissolving property in Octane” value was “⊙ (those dissolved at 5 g/L or more and those fully miscible with a solvent for dye solution were labeled as “⊙” with excellent dissolving property)”. The “dissolving property in Pentane” value was “⊙ (those dissolved at 5 g/L or more and those fully miscible with a solvent for dye solution were labeled as “⊙” with excellent dissolving property)”; the “dissolving property in t-Butyl methyl ether” value was “⊙ (those dissolved at 5 g/L or more and those fully miscible with a solvent for dye solution were labeled as “⊙” with excellent dissolving property)”; the “dissolving property in Water” value was “⊙ (those dissolved at 5 g/L or more and those fully miscible with a solvent for dye solution were labeled as “⊙” with excellent dissolving property)”.
Take `CC#N` [Acetonitrile, acetonitrile]: the “dissolving property in Dibutyl ether” value is “⊙ (those dissolved at 5 g/L or more and those fully miscible with a solvent for dye solution were labeled as “⊙” with excellent dissolving property)”; the “dissolving property in Diethyl ether” value was “⊙ (those dissolved at 5 g/L or more and those fully miscible with a solvent for dye solution were labeled as “⊙” with excellent dissolving property)”; the “dissolving property in Diisopropyl ether” value was “⊙ (those dissolved at 5 g/L or more and those fully miscible with a solvent for dye solution were labeled as “⊙” with excellent dissolving property)”; the “dissolving property in Heptane” value was “⊙ (those dissolved at 5 g/L or more and those fully miscible with a solvent for dye solution were labeled as “⊙” with excellent dissolving property)”. Also, the “dissolving property in Hexane” value is “⊙ (those dissolved at 5 g/L or more and those fully miscible with a solvent for dye solution were labeled as “⊙” with excellent dissolving property)”; the “dissolving property in Isoamyl ether” value was “⊙ (those dissolved at 5 g/L or more and those fully miscible with a solvent for dye solution were labeled as “⊙” with excellent dissolving property)”; the “dissolving property in Methyl propyl ether” value was “⊙ (those dissolved at 5 g/L or more and those fully miscible with a solvent for dye solution were labeled as “⊙” with excellent dissolving property)”; the “dissolving property in Octane” value was “⊙ (those dissolved at 5 g/L or more and those fully miscible with a solvent for dye solution were labeled as “⊙” with excellent dissolving property)”. Besides, the “dissolving property in Pentane” value is “⊙ (those dissolved at 5 g/L or more and those fully miscible with a solvent for dye solution were labeled as “⊙” with excellent dissolving property)”; the “dissolving property in t-Butyl methyl ether” value was “⊙ (those dissolved at 5 g/L or more and those fully miscible with a solvent for dye solution were labeled as “⊙” with excellent dissolving property)”; the “dissolving property in Water” value is “⊙ (those dissolved at 5 g/L or more and those fully miscible with a solvent for dye solution were labeled as “⊙” with excellent dissolving property)”.
`CCCCOc1ccc(-c2ccc(N(c3ccc(-c4ccc(C=C(C#N)C(=O)O)s4)cc3)c3ccc(-c4ccc(OCCCC)cc4OCCCC)cc3)cc2)c(OCCCC)c1` [D35]: the “dissolving property in Dibutyl ether” value is “◯ (those having solubility of 0.05 g/L or more but less than 5 g/L and those miscible with a solvent for dye solution were labeled as “∘” with good dissolving property)”; the “dissolving property in Diethyl ether” value was “⊙ (those dissolved at 5 g/L or more and those fully miscible with a solvent for dye solution were labeled as “⊙” with excellent dissolving property)”; the “dissolving property in Diisopropyl ether” value is “⊙ (those dissolved at 5 g/L or more and those fully miscible with a solvent for dye solution were labeled as “⊙” with excellent dissolving property)”; the “dissolving property in Heptane” value is “Δ (those having the solubility of less than 0.05 g/L were labeled as “Δ” with fair dissolving property)”. Also, the “dissolving property in Hexane” value is “Δ (those having the solubility of less than 0.05 g/L were labeled as “Δ” with fair dissolving property)”; the “dissolving property in Isoamyl ether” value is “Δ (those having the solubility of less than 0.05 g/L were labeled as “Δ” with fair dissolving property)”; the “dissolving property in Methyl propyl ether” value is “⊙ (those dissolved at 5 g/L or more and those fully miscible with a solvent for dye solution were labeled as “⊙” with excellent dissolving property)”; the “dissolving property in Octane” value is on record as “Δ (those having the solubility of less than 0.05 g/L were labeled as “Δ” with fair dissolving property)”. The “dissolving property in Pentane” value was “Δ (those having the solubility of less than 0.05 g/L were labeled as “Δ” with fair dissolving property)”; the “dissolving property in t-Butyl methyl ether” value is “⊙ (those dissolved at 5 g/L or more and those fully miscible with a solvent for dye solution were labeled as “⊙” with excellent dissolving property)”.
